Experimental data as given in patent US20230085307A1, “PYRIDAZINONE COMPOUND AND HERBICIDE” (NISSAN CHEMICAL CORPORATION, priority 2019, published 2023).

What was measured:
barnyard grass [1] = assay: Test Example 3: herbicidal effect by foliage application, Wagner pot (Table 18, symbol H); format: in vivo, barnyard grass (Echinochloa crus-galli); conditions: amount of applied herbicide 320 g/ha
Outline: (§1)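 Plants were sown in alluvial soil held under 0.1–0.5 cm standing water and grown 14 days in a greenhouse at 25–30 °C. An emulsifiable formulation, water-diluted to the set dose, was then sprayed onto the foliage, and effects were scored three weeks later using previously defined criteria.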

Chinese sprangletop = assay: Test Example 3: herbicidal effect by foliage application, Wagner pot (Table 18, symbol D); format: in vivo, chinese sprangletop (Leptochloa chinensis); conditions: amount of applied herbicide 320 g/ha
Outline: as §1

rice flat sedge = assay: Test Example 3: herbicidal effect by foliage application, Wagner pot (Table 18, symbol E); format: in vivo, rice flat sedge (Cyperus iria); conditions: amount of applied herbicide 320 g/ha
Outline: as §1

southern crabgrass [2] = assay: Test Example 4: herbicidal effect by soil treatment (Table 19, symbol F); format: in vivo, southern crabgrass (Digitaria ciliaris); conditions: amount of applied herbicide 320 g/ha
Outline: (§2)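 Scoring uses the grading scale of an earlier test, three weeks post-application. Treatment consists of spraying a diluted emulsion formulation across the surface of sterilized diluvial soil in which seeds are buried near 1.5 cm deep; boxes are kept in a greenhouse between 25° C. and 30° C.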

green foxtail [3] = assay: Test Example 4: herbicidal effect by soil treatment (Table 19, symbol G); format: in vivo, green foxtail (Setaria viridis); conditions: amount of applied herbicide 320 g/ha
Outline: as §2

barnyard grass [4] = assay: Test Example 4: herbicidal effect by soil treatment (Table 19, symbol H); format: in vivo, barnyard grass (Echinochloa crus-galli); conditions: amount of applied herbicide 320 g/ha
Outline: as §2

wild oat [5] = assay: Test Example 4: herbicidal effect by soil treatment (Table 19, symbol I); format: in vivo, wild oat (Avena fatua); conditions: amount of applied herbicide 320 g/ha
Outline: as §2

blackgrass [6] = assay: Test Example 4: herbicidal effect by soil treatment (Table 19, symbol J); format: in vivo, blackgrass (Alopecurus myosuroides); conditions: amount of applied herbicide 320 g/ha
Outline: as §2

Italian ryegrass [7] = assay: Test Example 4: herbicidal effect by soil treatment (Table 19, symbol K); format: in vivo, Italian ryegrass (Lolium multiflorum); conditions: amount of applied herbicide 320 g/ha
Outline: as §2

windgrass [8] = assay: Test Example 4: herbicidal effect by soil treatment (Table 19, symbol L); format: in vivo, windgrass (Apera spica-venti); conditions: amount of applied herbicide 320 g/ha
Outline: as §2

velvetleaf [9] = assay: Test Example 4: herbicidal effect by soil treatment (Table 19, symbol M); format: in vivo, velvetleaf (Abutilon theophrasti); conditions: amount of applied herbicide 320 g/ha
Outline: as §2

redroot pigweed [10] = assay: Test Example 4: herbicidal effect by soil treatment (Table 19, symbol N); format: in vivo, redroot pigweed (Amaranthus retroflexus); conditions: amount of applied herbicide 320 g/ha
Outline: as §2

lambsquarters [11] = assay: Test Example 4: herbicidal effect by soil treatment (Table 19, symbol O); format: in vivo, lambsquarters (Chenopodium album); conditions: amount of applied herbicide 320 g/ha
Outline: as §2

chickweed [12] = assay: Test Example 4: herbicidal effect by soil treatment (Table 19, symbol P); format: in vivo, common chickweed (Stellaria media); conditions: amount of applied herbicide 320 g/ha
Outline: as §2

false cleavers = assay: Test Example 4: herbicidal effect by soil treatment (Table 19, symbol Q); format: in vivo, false cleavers (Galium spurium); conditions: amount of applied herbicide 320 g/ha
Outline: as §2

persian speedwell [13] = assay: Test Example 4: herbicidal effect by soil treatment (Table 19, symbol R); format: in vivo, Persian speedwell (Veronica persica); conditions: amount of applied herbicide 320 g/ha
Outline: as §2

southern crabgrass [14] = assay: Test Example 5: herbicidal effect by foliage application, plastic box (Table 20, symbol F); format: in vivo, southern crabgrass (Digitaria ciliaris); conditions: foliage application, 320 g/ha
Outline: (§3)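 Post-emergence foliar test in sterilized diluvial soil. Compound applied as water-diluted emulsion at a predetermined rate to 14-day-old plants; evaluation at three weeks.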

green foxtail [15] = assay: Test Example 5: herbicidal effect by foliage application, plastic box (Table 20, symbol G); format: in vivo, green foxtail (Setaria viridis); conditions: foliage application, 320 g/ha
Outline: as §3

barnyard grass [16] = assay: Test Example 5: herbicidal effect by foliage application, plastic box (Table 20, symbol H); format: in vivo, barnyard grass (Echinochloa crus-galli); conditions: foliage application, 320 g/ha
Outline: as §3

wild oat [17] = assay: Test Example 5: herbicidal effect by foliage application, plastic box (Table 20, symbol I); format: in vivo, wild oat (Avena fatua); conditions: foliage application, 320 g/ha
Outline: as §3

blackgrass [18] = assay: Test Example 5: herbicidal effect by foliage application, plastic box (Table 20, symbol J); format: in vivo, blackgrass (Alopecurus myosuroides); conditions: foliage application, 320 g/ha
Outline: as §3

Italian ryegrass [19] = assay: Test Example 5: herbicidal effect by foliage application, plastic box (Table 20, symbol K); format: in vivo, Italian ryegrass (Lolium multiflorum); conditions: foliage application, 320 g/ha
Outline: as §3

windgrass [20] = assay: Test Example 5: herbicidal effect by foliage application, plastic box (Table 20, symbol L); format: in vivo, windgrass (Apera spica-venti); conditions: foliage application, 320 g/ha
Outline: as §3

velvetleaf [21] = assay: Test Example 5: herbicidal effect by foliage application, plastic box (Table 20, symbol M); format: in vivo, velvetleaf (Abutilon theophrasti); conditions: foliage application, 320 g/ha
Outline: as §3

redroot pigweed [22] = assay: Test Example 5: herbicidal effect by foliage application, plastic box (Table 20, symbol N); format: in vivo, redroot pigweed (Amaranthus retroflexus); conditions: foliage application, 320 g/ha
Outline: as §3

lambsquarters [23] = assay: Test Example 5: herbicidal effect by foliage application, plastic box (Table 20, symbol O); format: in vivo, lambsquarters (Chenopodium album); conditions: foliage application, 320 g/ha
Outline: as §3

chickweed [24] = assay: Test Example 5: herbicidal effect by foliage application, plastic box (Table 20, symbol P); format: in vivo, common chickweed (Stellaria media); conditions: foliage application, 320 g/ha
Outline: as §3

persian speedwell [25] = assay: Test Example 5: herbicidal effect by foliage application, plastic box (Table 20, symbol R); format: in vivo, Persian speedwell (Veronica persica); conditions: foliage application, 320 g/ha
Outline: as §3

[26] = evaluated three weeks after application

For `CCCC(=O)Oc1c(C)nn(C)c(=O)c1-c1c(-c2ccc3c(c2)OCO3)sc2ccc(C)cc12` [2-157], the “herbicidal effect on H: barnyard grass” value (barnyard grass [1]) was 3 (Herbicidal rate of 40% or more and less than 70%), the “herbicidal effect on D: Chinese sprangletop” value (Chinese sprangletop) was 0 (Herbicidal rate of 5% or less (almost no effect)) and the “herbicidal effect on E: rice flat sedge” value (rice flat sedge) was 0 (Herbicidal rate of 5% or less (almost no effect)). The “F: southern crabgrass, herbicidal effect rating” value (southern crabgrass [2]) was 0 (Herbicidal rate of 5% or less (almost no effect)), the “G: green foxtail, herbicidal effect rating” value (green foxtail [3]) was 0 (Herbicidal rate of 5% or less (almost no effect)) and the “H: barnyard grass, herbicidal effect rating” value (barnyard grass [4]) was 0 (Herbicidal rate of 5% or less (almost no effect)). The “I: wild oat, herbicidal effect rating” value (wild oat [5]) was 0 (Herbicidal rate of 5% or less (almost no effect)), the “J: blackgrass, herbicidal effect rating” value (blackgrass [6]) was 0 (Herbicidal rate of 5% or less (almost no effect)) and the “K: Italian ryegrass, herbicidal effect rating” value (Italian ryegrass [7]) was 0 (Herbicidal rate of 5% or less (almost no effect)). For the same compound, the “L: windgrass, herbicidal effect rating” value (windgrass [8]) was 0 (Herbicidal rate of 5% or less (almost no effect)), the “M: velvetleaf, herbicidal effect rating” value (velvetleaf [9]) was 0 (Herbicidal rate of 5% or less (almost no effect)) and the “N: redroot pigweed, herbicidal effect rating” value (redroot pigweed [10]) was 0 (Herbicidal rate of 5% or less (almost no effect)). For the same compound, the “O: lambsquarters, herbicidal effect rating” value (lambsquarters [11]) was 0 (Herbicidal rate of 5% or less (almost no effect)), the “P: chickweed, herbicidal effect rating” value (chickweed [12]) was 4 (Herbicidal rate of 70% or more and less than 90%) and the “Q: false cleavers, herbicidal effect rating” value (false cleavers) was 0 (Herbicidal rate of 5% or less (almost no effect)). For the same compound, the “R: persian speedwell, herbicidal effect rating” value (persian speedwell [13]) was 3 (Herbicidal rate of 40% or more and less than 70%), the “herbicidal effect on F: southern crabgrass (criteria 0-5)” value (southern crabgrass [14]; [26]) was 0 (Herbicidal rate of 5% or less (almost no effect)) and the “herbicidal effect on G: green foxtail (criteria 0-5)” value (green foxtail [15]; [26]) was 0 (Herbicidal rate of 5% or less (almost no effect)). The “herbicidal effect on H: barnyard grass (criteria 0-5)” value (barnyard grass [16]; [26]) was 0 (Herbicidal rate of 5% or less (almost no effect)), the “herbicidal effect on I: wild oat (criteria 0-5)” value (wild oat [17]; [26]) was 0 (Herbicidal rate of 5% or less (almost no effect)) and the “herbicidal effect on J: blackgrass (criteria 0-5)” value (blackgrass [18]; [26]) was 0 (Herbicidal rate of 5% or less (almost no effect)). For the same compound, the “herbicidal effect on K: Italian ryegrass (criteria 0-5)” value (Italian ryegrass [19]; [26]) was 0 (Herbicidal rate of 5% or less (almost no effect)), the “herbicidal effect on L: windgrass (criteria 0-5)” value (windgrass [20]; [26]) was 0 (Herbicidal rate of 5% or less (almost no effect)) and the “herbicidal effect on M: velvetleaf (criteria 0-5)” value (velvetleaf [21]; [26]) was 0 (Herbicidal rate of 5% or less (almost no effect)). The “herbicidal effect on N: redroot pigweed (criteria 0-5)” value (redroot pigweed [22]; [26]) was 3 (Herbicidal rate of 40% or more and less than 70%), the “herbicidal effect on O: lambsquarters (criteria 0-5)” value (lambsquarters [23]; [26]) was 0 (Herbicidal rate of 5% or less (almost no effect)) and the “herbicidal effect on P: chickweed (criteria 0-5)” value (chickweed [24]; [26]) was 0 (Herbicidal rate of 5% or less (almost no effect)). The “herbicidal effect on R: persian speedwell (criteria 0-5)” value (persian speedwell [25]; [26]) was 4 (Herbicidal rate of 70% or more and less than 90%).
For `Cc1nn(C)c(=O)c(-c2c(-c3ccc(SCC#N)cc3)sc3ccc(F)cc23)c1O` [2-423], the “herbicidal effect, F: southern crabgrass” value (southern crabgrass [2]) was 0 (Herbicidal rate of 5% or less (almost no effect)), the “herbicidal effect, G: green foxtail” value (green foxtail [3]) was 4 (Herbicidal rate of 70% or more and less than 90%) and the “herbicidal effect, H: barnyard grass” value (barnyard grass [4]) was 1 (Herbicidal rate of 5% or more and less than 20%). The “herbicidal effect, I: wild oat” value (wild oat [5]) was 0 (Herbicidal rate of 5% or less (almost no effect)), the “herbicidal effect, J: blackgrass” value (blackgrass [6]) was 0 (Herbicidal rate of 5% or less (almost no effect)) and the “herbicidal effect, K: Italian ryegrass” value (Italian ryegrass [7]) was 3 (Herbicidal rate of 40% or more and less than 70%). The “herbicidal effect, L: windgrass” value (windgrass [8]) was 1 (Herbicidal rate of 5% or more and less than 20%), the “herbicidal effect, M: velvetleaf” value (velvetleaf [9]) was 1 (Herbicidal rate of 5% or more and less than 20%) and the “herbicidal effect, N: redroot pigweed” value (redroot pigweed [10]) was 5 (Herbicidal rate of 90% or more (almost completely withered)). For the same compound, the “herbicidal effect, O: lambsquarters” value (lambsquarters [11]) was 4 (Herbicidal rate of 70% or more and less than 90%), the “herbicidal effect, P: chickweed” value (chickweed [12]) was 5 (Herbicidal rate of 90% or more (almost completely withered)) and the “herbicidal effect, Q: false cleavers” value (false cleavers) was 0 (Herbicidal rate of 5% or less (almost no effect)). For the same compound, the “herbicidal effect, R: persian speedwell” value (persian speedwell [13]) was 4 (Herbicidal rate of 70% or more and less than 90%), the “F: southern crabgrass, herbicidal effect grade” value (southern crabgrass [14]; three weeks after application) was 0 (Herbicidal rate of 5% or less (almost no effect)) and the “G: green foxtail, herbicidal effect grade” value (green foxtail [15]; three weeks after application) was 5 (Herbicidal rate of 90% or more (almost completely withered)). The “H: barnyard grass, herbicidal effect grade” value (barnyard grass [16]; three weeks after application) was 5 (Herbicidal rate of 90% or more (almost completely withered)), the “I: wild oat, herbicidal effect grade” value (wild oat [17]; three weeks after application) was 5 (Herbicidal rate of 90% or more (almost completely withered)) and the “J: blackgrass, herbicidal effect grade” value (blackgrass [18]; three weeks after application) was 4 (Herbicidal rate of 70% or more and less than 90%). The “K: Italian ryegrass, herbicidal effect grade” value (Italian ryegrass [19]; three weeks after application) was 5 (Herbicidal rate of 90% or more (almost completely withered)), the “L: windgrass, herbicidal effect grade” value (windgrass [20]; three weeks after application) was 5 (Herbicidal rate of 90% or more (almost completely withered)) and the “M: velvetleaf, herbicidal effect grade” value (velvetleaf [21]; three weeks after application) was 5 (Herbicidal rate of 90% or more (almost completely withered)). For the same compound, the “N: redroot pigweed, herbicidal effect grade” value (redroot pigweed [22]; three weeks after application) was 5 (Herbicidal rate of 90% or more (almost completely withered)), the “O: lambsquarters, herbicidal effect grade” value (lambsquarters [23]; three weeks after application) was 5 (Herbicidal rate of 90% or more (almost completely withered)) and the “P: chickweed, herbicidal effect grade” value (chickweed [24]; three weeks after application) was 5 (Herbicidal rate of 90% or more (almost completely withered)). The “R: persian speedwell, herbicidal effect grade” value (persian speedwell [25]; three weeks after application) was 5 (Herbicidal rate of 90% or more (almost completely withered)).
